According to article PMC11680790, “Structural and functional determination of peptide versus small molecule ligand binding at the apelin receptor” (Nature Communications, 2024):
Substitutions are numbered along the chain they refer to.

Assays:
[1] = biological target: T1, wild-type apelin receptor (Homo sapiens, UniProt P35414); test: DiscoveRx cAMP assay, CHO-K1 transiently transfected, wild-type; assay type: cell-based
T1 construct: expressed in transfected cells; host or cells: CHO-K1 (ECACC 85051005), transient, pcDNA3.1
T1 sequence (P35414 1-380): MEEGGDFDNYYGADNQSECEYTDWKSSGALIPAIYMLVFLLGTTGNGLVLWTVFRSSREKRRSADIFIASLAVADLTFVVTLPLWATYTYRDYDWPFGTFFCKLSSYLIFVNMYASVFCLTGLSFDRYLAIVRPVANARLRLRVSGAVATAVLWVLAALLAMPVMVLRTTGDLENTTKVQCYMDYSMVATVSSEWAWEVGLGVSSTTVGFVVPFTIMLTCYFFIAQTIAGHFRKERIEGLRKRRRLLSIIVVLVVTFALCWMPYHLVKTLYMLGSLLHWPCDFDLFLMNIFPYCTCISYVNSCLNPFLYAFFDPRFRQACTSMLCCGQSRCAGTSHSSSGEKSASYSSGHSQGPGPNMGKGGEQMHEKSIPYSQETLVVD
Source text: (1 picture or pasted object on this page, not shown here)

[2] = system: apelin receptor in human, rat and mouse heart; parameters: method as in Read et al. Biochem Pharmacol. 2016; conditions: ref Read et al. Biochem Pharmacol. 2016; cited from earlier work
apelin receptor = test: DiscoveRx cAMP assay, CHO-K1 stably expressing the apelin receptor; assay type: cell-based, human; conditions: stably expressing CHO-K1, forskolin stimulated cAMP
Source text: (§1) (A) ERK1/2 and (B) eNOS in PAECs and ERK1/2 in (C) control and (D) PAH PASMcs following treatment with 0.1% serum (control), […]
(§2) measures with Tukey’s post-test for multiple comparisons. […]
(§3) difference in down-stream signalling with the endogenous ligands used in our study.
(§4) However, dynamic mass redistribution assays are a widely used (over 400 references in Pubmed) and generally accepted robust label-free technology to measure ligand-induced changes in the mass of cells and provides an integrated cellular response, comprising multiple pathways and cellular events. We believe
(§5) DMR is robust for testing the function of apelin receptor variants, particularly when combined with our radioligand binding assays. […]
(§6) recommended.’ We thank the referee for the recommendation but we were not successful in generating additional data in the apelin receptor variants with downstream signalling functional assays that we carried […]
(§7) We have tried to test the function of apelin receptor variants in a DiscoveRx cAMP assay. The figure below […]
(§8) Provided in the assay kit, CHO-K1 cells stably expressing the apelin receptor (shown in green) responded as […]
(§9) the levels of forskolin stimulated cAMP accumulation and decreasing the fluorescent signal in relative li ght units (RLU). CHO-K1 cells transiently transfected in-house with either wild-type (black), T/M89 (red), or […]

R/H168 apelin receptor = test: DiscoveRx cAMP assay, CHO-K1 transiently transfected, R/H168; assay type: cell-based, human
Source text: as §1, §2, §3, §4, §5, §6, §7, §8, §9

Chrom logD = assay type: physicochemical; conditions: chromatographic
human apelin receptor = biological target: T2, human apelin receptor (Homo sapiens, UniProt P35414); parameters: method as in 2 sources, ref Read et al., 2016, PMID:27475715 ||| ref Read et al. Biochem Pharmacol. 2016; conditions: cited from earlier work
T2 sequence (P35414 1-380): T1 sequence (P35414 1-380)

[3] = biological target: T3, R/H168^4.64 variant NxStaR (Homo sapiens, UniProt P35414, F214L/I224A/N112A/R168H/S298A/T207M/T87V); test: SPR, pH dependence (Biacore 8K+), R/H168^4.64 NxStaR; conditions: 5% DMSO, 10 °C, single determination
T3 sequence (P35414 1-380 T87V/N112A/R168H/T207M/F214L/I224A/S298A): T1 sequence (P35414 1-380) with T87V, N112A, R168H, T207M, F214L, I224A, S298A
Procedure: (§10) Both were equipped with a NTA sensor chip (Cytiva). […] 0.5 M EDTA pH 8.0 was injected for 60 s at 5 µL/min followed by a 60 s injection of run buffer containing 0.5 mM NiCl2. The surface was activated with a 1:1 mixture of 0.1 M NHS and 0.5 M EDC at a flow rate of 10 µL/min for 420 s. The receptors were injected at a concentration of 1 µM at 5 µL/min until a surface response of 5000 RU was achieved. The surface was equilibrated for 12 h in buffer before commencing experiments.
(§11) Compound and peptide binding was measured in pH 7.5 buffer previously described and in buffer at pH 6.0 comprising of 0.025 M MES, pH 6.0, 0.15 M NaCl, 0.02% DDM, 5% DMSO. The analyses were run in single-cycle format with four concentration points in a twofold dilution series. […] The association phase was 60 s for each concentration and the dissociation phase was 300 s. There were 4 blank cycles between compound injections.
(§12) The data were processed using Biacore T200 Evaluation Software (Version 2.0, Cytiva) and Biacore Insight Evaluation Software (Version 5.0, Cytiva). Sensorgrams were reference and blank subtracted before fitting with 1:1 binding model which accounted for drift, bulk shift and mass transport.

apelin receptor NxStaR = biological target: T4, apelin receptor NxStaR (Homo sapiens, UniProt P35414, F214L/I224A/N112A/S298A/T207M/T87V); test: SPR, pH dependence (Biacore 8K+), NxStaR; conditions: 5% DMSO, 10 °C, single determination
T4 sequence (P35414 1-380 T87V/N112A/T207M/F214L/I224A/S298A): T1 sequence (P35414 1-380) with T87V, N112A, T207M, F214L, I224A, S298A
Procedure: as §10, §11, §12

anaesthetised rats = system: anaesthetised rats; parameters: method as in 2 sources, ref Read et al. Biochem Pharmacol 2016 ||| ref Yang et al., Circulation. 2017; conditions: cited from earlier work
T/M89 apelin receptor = test: DiscoveRx cAMP assay, CHO-K1 transiently transfected, T/M89; assay type: cell-based, human
Source text: as §1, §2, §3, §4, §5, §6, §7, §8, §9

rat = system: rat; parameters: method as in Yang et al., Circulation. 2017; conditions: 21 days, rats; ref Yang et al., Circulation. 2017; cited from earlier work
[4] = ref Read et al. Biochem Pharmacol. 2016

Molecule	cAMP response [1]	competition for specific binding of apelin [2]	cAMP response (apelin receptor)	cAMP response (R/H168 apelin receptor)	Chrom logD (Chrom logD)	bias factor cAMP vs receptor internalisation (human apelin receptor; [4])	bias factor cAMP vs β-arrestin recruitment (human apelin receptor; [4])	cAMP potency versus [Pyr1]apelin-13 (human apelin receptor; [4])	bias towards G protein pathway over beta-arrestin (human apelin receptor; ref Read et al., 2016, PMID:27475715)	Kd ([3]; pH 6.0 (MES), 0.02% DDM) [nM]	Kd ([3]; pH 7.5, 0.02% DDM) [nM]	Kd (apelin receptor NxStaR; pH 6.0 (MES), 0.02% DDM) [nM]	Kd (apelin receptor NxStaR; pH 7.5, 0.02% DDM) [nM]	stroke volume and cardiac output (anaesthetised rats; anaesthetised rats, ref Read et al. Biochem Pharmacol 2016)	peripheral arterial pressure (anaesthetised rats; i.v. CMF-019 potassium salt, anaesthetised rat, ref Read et al. Biochem Pharmacol 2016)	left ventricular contractility (anaesthetised rats; i.v. CMF-019 potassium salt, anaesthetised rats, ref Read et al. Biochem Pharmacol 2016)	cAMP response (T/M89 apelin receptor)	blood pressure, chronic ELA treatment (rat)	systemic vasodilatation (anaesthetised rats; carotid artery catheterisation, ref Yang et al., Circulation. 2017)
CCC(CC)n1c(Cc2cccs2)nc2cc(C(=O)N[C@H](CC(=O)O)CC(C)C)ccc21 [CMF-019]	did not show an observable response	competes for the specific binding of apelin	reducing	did not show an observable response	3.14	~ 5000	~ 400	comparable potency to [Pyr1]apelin-13	2250	14.6	68.7	3.4	6.1	increased stroke volume and cardiac output	reduced peripheral arterial pressure	dose dependent increases in left ventricular contractility	did not show an observable response		
NCLQRRCMPLHSRVPFP [ELA, endogenous peptide Elabela/Toddler]																		did not significantly affect systemic blood pressure	caused acute systemic vasodilatation
